Test results reported in patent US11946094B2, “Combination therapies and methods of use thereof” (Augusta University Research Institute, Inc., priority 2017, dated 2024).

The compounds below were run on OVCAR-8 cells (assay: Drug-siRNA combination screen: 346-compound anticancer library at 100 nM, CCK-8 viability). Settings: not given.

For Maraviroc, which “Score (sum of observed SD values for 18 genes)” value is on record?
The value was 0.11 SD.

Which “Score (sum of observed SD values for 18 genes)” value does the source give for `CCCC(=O)[O-].[Na+]` [Sodium butyrate] here?
The value was −16.25 SD.

Same assay, conditions: OVCAR-8; drug 100 nM plus siRNA knockdown of each of 18 genes; distance VAB−VA×VB in SD; single gene contributes at most +5 / −5; negative = synergy, positive = antagonism

`O=c1[nH]c(=O)n(C2CCCO2)cc1F` (stereo not shown) [Ftorafur] was tested. Which “Score (sum of observed SD values for 18 genes)” value did it give?
The value was −9.75 SD.

With `O=C1[C@H](CC[C@H](O)c2ccc(F)cc2)[C@@H](c2ccc(O)cc2)N1c1ccc(F)cc1` [Ezetimibe] as the compound, how does the “Score (sum of observed SD values for 18 genes)” value read?
The value was −5.31 SD.

For `COCCn1c2c([n+](Cc3cnccn3)c1C)C(=O)c1ccccc1C2=O` [YM155], which “Score (sum of observed SD values for 18 genes)” value is on record?
Its value is −1.58 SD.

For `C#Cc1cccc(Nc2ncnc3cc(OCCOC)c(OCCO)cc23)c1` [OSI-420], which “Score (sum of observed SD values for 18 genes)” value is on record?
Its value is −27.08 SD.

`COC1=C2C[C@@H](C)C[C@H](OC)[C@H](O)[C@@H](C)/C=C(\C)[C@H](OC(N)=O)[C@@H](OC)/C=C\C=C(/C)C(=O)NC(=CC1=O)C2=O` [Geldanamycin] was tested. Which “Score (sum of observed SD values for 18 genes)” value did it give?
Its value is 4.47 SD.

With `CN[C@@H](C)C(=O)N[C@H]1CN(C(=O)CC(C)C)CC[C@H]2CC[C@@H](C(=O)NC(c3ccccc3)c3ccccc3)N2C1=O` [AT406] as the compound, how does the “Score (sum of observed SD values for 18 genes)” value read?
The value was −38.03 SD.

For `O=C(O)c1nn(Cc2ccc(Cl)cc2Cl)c2ccccc12` [Lonidamine], which “Score (sum of observed SD values for 18 genes)” value is on record?
Its value is −16.85 SD.

`O=C(NOCC1CC1)c1ccc(F)c(F)c1Nc1ccc(I)cc1Cl` [CI-1040] was tested. Which “Score (sum of observed SD values for 18 genes)” value did it give?
Its value is −45.66 SD.

`FC(F)c1nc2ccccc2n1-c1nc(N2CCOCC2)nc(N2CCOCC2)n1` [ZSTK474] was tested. Which “Score (sum of observed SD values for 18 genes)” value did it give?
The value was -52.94 SD.

For `COc1cccc2c1C(=O)c1c(O)c3c(c(O)c1C2=O)C[C@@](O)(C(=O)CO)C[C@@H]3O[C@H]1C[C@H](N)[C@H](O)[C@H](C)O1` [Doxorubicin], which “Score (sum of observed SD values for 18 genes)” value is on record?
The value was 15.09 SD.

For SNS-314 Mesylate, which “Score (sum of observed SD values for 18 genes)” value is on record?
The value was −1.05 SD.

For `Cc1[nH]c(/C=C2\C(=O)Nc3ccc(S(=O)(=O)N(C)c4cccc(Cl)c4)cc32)c(C)c1C(=O)N1CCN(C)CC1` [SU11274], which “Score (sum of observed SD values for 18 genes)” value is on record?
Its value is −0.42 SD.

`Cc1cc(Nc2cc(N3CCN(C)CC3)nc(Sc3ccc(NC(=O)C4CC4)cc3)n2)[nH]n1` [Tozasertib] was tested. Which “Score (sum of observed SD values for 18 genes)” value did it give?
Its value is −4.08 SD.

`Cc1cnc(Nc2ccc(OCCN3CCCC3)cc2)nc1Nc1cccc(S(=O)(=O)NC(C)(C)C)c1` [Fedratinib] was tested. Which “Score (sum of observed SD values for 18 genes)” value did it give?
Its value is 56.68 SD.

For `CN1CCN(c2ccc3nc(-c4c(N)c5c(F)cccc5[nH]c4=O)[nH]c3c2)CC1` [Dovitinib], which “Score (sum of observed SD values for 18 genes)” value is on record?
The value was −22.96 SD.

`C[C@@H]1CN(CC(=O)Nc2ccc3c(c2)Cc2cccc(-c4cc(=O)cc(N5CCOCC5)o4)c2S3)C[C@H](C)O1` [KU-60019] was tested. Which “Score (sum of observed SD values for 18 genes)” value did it give?
Its value is −25.5 SD.

`CCc1ccc(CCOc2ccc(CC3SC(=O)NC3=O)cc2)nc1` (stereo not shown) [Pioglitazone] was tested. Which “Score (sum of observed SD values for 18 genes)” value did it give?
Its value is −37.6 SD.

`COc1cc(OC)c(/C=C/S(=O)(=O)Cc2ccc(OC)c(NCC(=O)O)c2)c(OC)c1` [Rigosertib] was tested. Which “Score (sum of observed SD values for 18 genes)” value did it give?
The value was 6.43 SD.

How did the “Score (sum of observed SD values for 18 genes)” value turn out when `O=c1cc(-c2cccc3c2Sc2ccccc2S3)oc(N2CCOCC2)c1` [KU-55933] was run?
The value was −14.37 SD.

For `N.N.[Cl][Pt][Cl]` [Cisplatin], which “Score (sum of observed SD values for 18 genes)” value is on record?
The value was −21 SD.

With `Nc1ccn([C@@H]2O[C@H](CO)[C@@H](O)C2(F)F)c(=O)n1` [Gemcitibine] as the compound, how does the “Score (sum of observed SD values for 18 genes)” value read?
The value was 34.12 SD.

For `O=C(NCCCNc1nc(Nc2cccc(NC(=O)N3CCCC3)c2)ncc1I)c1cccs1` [BX-795], which “Score (sum of observed SD values for 18 genes)” value is on record?
The value was −14.94 SD.

`Nc1cccc2c1C(=O)N(C1CCC(=O)NC1=O)C2=O` (stereo not shown) [Pomalidomide] was tested. Which “Score (sum of observed SD values for 18 genes)” value did it give?
Its value is −3.4 SD.

Which “Score (sum of observed SD values for 18 genes)” value does the source give for `C=CCc1cccc(/C=N/NC(=O)CN2CCN(Cc3ccccc3)CC2)c1O` [PAC - 1] here?
Its value is −13.56 SD.

Which “Score (sum of observed SD values for 18 genes)” value does the source give for `COc1c(C)c2c(c(O)c1C/C=C(\C)CCC(=O)O)C(=O)OC2` [Mycophenolic acid] here?
Its value is −20.87 SD.

For `CN(NC(=O)CC(=O)NN(C)C(=S)c1ccccc1)C(=S)c1ccccc1` [Elesclomol], which “Score (sum of observed SD values for 18 genes)” value is on record?
The value was 11.26 SD.

How did the “Score (sum of observed SD values for 18 genes)” value turn out when `CCOc1cc2ncc(C#N)c(Nc3ccc(F)c(Cl)c3)c2cc1NC(=O)/C=C/CN(C)C` [Pelitinib] was run?
Its value is -54.75 SD.

For `Nc1ccc(-c2ccc3ncc4ccc(=O)n(-c5cccc(C(F)(F)F)c5)c4c3c2)cn1` [Torin 2], which “Score (sum of observed SD values for 18 genes)” value is on record?
The value was −37.17 SD.

With `C[C@@H]1C[C@H]2[C@@H]3CCC4=CC(=O)C=C[C@]4(C)[C@@]3(F)[C@@H](O)C[C@]2(C)[C@@]1(O)C(=O)CO` [Dexamethasone] as the compound, how does the “Score (sum of observed SD values for 18 genes)” value read?
The value was −3.28 SD.

Which “Score (sum of observed SD values for 18 genes)” value does the source give for `Cc1cccc(Nc2nc(-c3ccncc3)cs2)c1` [STF-62247] here?
The value was −24.47 SD.

How did the “Score (sum of observed SD values for 18 genes)” value turn out when `COc1cc(Nc2ncc3c(n2)-c2ccc(Cl)cc2C(c2c(F)cccc2OC)=NC3)ccc1C(=O)O` [Alisertib] was run?
Its value is −2.8 SD.

Which “Score (sum of observed SD values for 18 genes)” value does the source give for `Nc1ccccc1NC(=O)c1ccc(CNc2nccc(-c3cccnc3)n2)cc1` [Mocetinostat] here?
Its value is 1.27 SD.

Which “Score (sum of observed SD values for 18 genes)” value does the source give for `Cc1ccc(-n2nc(C(C)(C)C)cc2NC(=O)Nc2ccc(OCCN3CCOCC3)c3ccccc23)cc1` [Doramapimod] here?
Its value is -50.99 SD.

How did the “Score (sum of observed SD values for 18 genes)” value turn out when `COc1cc2ncnc(Nc3ccc(F)c(Cl)c3)c2cc1NC(=O)/C=C/CN1CCCCC1` [Dacomitinib] was run?
The value was -68.29 SD.

With `C[C@H](NC(=O)Cc1cc(F)cc(F)c1)C(=O)N[C@@H]1C(=O)N(C)c2ccccc2-c2ccccc21` [0YO-1027] as the compound, how does the “Score (sum of observed SD values for 18 genes)” value read?
Its value is −38.72 SD.

For `Nc1nccc(Oc2ccc(NC(=O)c3c[nH]cc(-c4ccc(F)cc4)c3=O)cc2F)c1Cl` [BMS 794833], which “Score (sum of observed SD values for 18 genes)” value is on record?
Its value is −23.46 SD.

With `c1ccc2c(CCNc3ccc(Nc4ccncc4)cc3)c[nH]c2c1` [Serdemetan] as the compound, how does the “Score (sum of observed SD values for 18 genes)” value read?
The value was −29.35 SD.

Which “Score (sum of observed SD values for 18 genes)” value does the source give for `O=c1c(O)c(-c2ccc(O)c(O)c2)oc2cc(O)cc(O)c12` [Quercetin] here?
Its value is −5.63 SD.

`CN1CCN(CCOc2cc(OC3CCOCC3)c3c(Nc4c(Cl)ccc5c4OCO5)ncnc3c2)CC1` [Saracatinib] was tested. Which “Score (sum of observed SD values for 18 genes)” value did it give?
Its value is -53.14 SD.

How did the “Score (sum of observed SD values for 18 genes)” value turn out when `CC[C@@H]1C(=O)N(C)c2cnc(Nc3ccc(C(=O)NC4CCN(C)CC4)cc3OC)nc2N1C1CCCC1` [BI2536] was run?
Its value is 12.6 SD.

`Cc1ccc(C(=O)N(CCCN)[C@@H](c2nc3cc(Cl)ccc3c(=O)n2Cc2ccccc2)C(C)C)cc1` [Ispinesib] was tested. Which “Score (sum of observed SD values for 18 genes)” value did it give?
The value was 1.22 SD.

How did the “Score (sum of observed SD values for 18 genes)” value turn out when `CCCCc1nc2cc(/C=C/C(=O)NO)ccc2n1CCN(CC)CC` [Pracinostat] was run?
The value was −43.48 SD.

For `CCc1c2c(nc3ccc(OC(=O)N4CCC(N5CCCCC5)CC4)cc13)-c1cc3c(c(=O)n1C2)COC(=O)[C@]3(O)CC.Cl` [Irinotecan HCI], which “Score (sum of observed SD values for 18 genes)” value is on record?
Its value is −7.65 SD.

How did the “Score (sum of observed SD values for 18 genes)” value turn out when `COc1cc2ncnc(-n3nc(-c4ccccn4)nc3N)c2cc1OC` [CP-466722] was run?
Its value is 2.79 SD.

How did the “Score (sum of observed SD values for 18 genes)” value turn out when `O=S(=O)(O)CCS` [Mesna] was run?
The value was −15.88 SD.

For `Cc1cc2c(F)c(Oc3ncnn4cc(OC[C@@H](C)O)c(C)c34)ccc2[nH]1` [Brivanib], which “Score (sum of observed SD values for 18 genes)” value is on record?
The value was −14.38 SD.

Same assay, conditions: OVCAR-8; drug 100 nM; panel of 18 siRNA knockdowns

For `O=C(NOCC1CC1)c1ccc(F)c(F)c1Nc1ccc(I)cc1Cl` [CI-1040], which “synergy / antagonism of drug with gene knockdowns, in words” value (“synergy / antagonism of drug” for short) is on record?
The value was “among the top synergistic compounds”.

`FC(F)c1nc2ccccc2n1-c1nc(N2CCOCC2)nc(N2CCOCC2)n1` [ZSTK474] was tested. Which “synergy / antagonism of drug” value did it give?
Its value is “synergy to the vast majority of genes”.

For `Nc1ccccc1NC(=O)c1ccc(CNc2nccc(-c3cccnc3)n2)cc1` [Mocetinostat], which “synergy / antagonism of drug” value is on record?
Its value is “frequently antagonized by knockdown of specific genes”.

With `CCCCc1nc2cc(/C=C/C(=O)NO)ccc2n1CCN(CC)CC` [Pracinostat] as the compound, how does the “synergy / antagonism of drug” value read?
The value was “mostly synergistic”.

Same assay, conditions: OVCAR-8; drug 100 nM; siRNA knockdown

For `Cc1ccc(-n2nc(C(C)(C)C)cc2NC(=O)Nc2ccc(OCCN3CCOCC3)c3ccccc23)cc1` [Doramapimod], which “number of genes (of 18) whose knockdown synergizes with the drug” value is on record?
Its value is 11 genes.

How did the “number of genes (of 18) with high synergy with the drug” value turn out when `COc1cc2ncnc(Nc3ccc(F)c(Cl)c3)c2cc1NC(=O)/C=C/CN1CCCCC1` [Dacomitinib] was run?
Its value is 15 genes.

Which “number of genes (of 18) whose knockdown synergizes with the drug” value does the source give for `CCCCc1nc2cc(/C=C/C(=O)NO)ccc2n1CCN(CC)CC` [Pracinostat] here?
The value was 11 genes.
